From paper PMC8842630, “Imidazoline- and Benzamidine-Based Trypanosome Alternative Oxidase Inhibitors: Synthesis and Structure–Activity Relationship Studies” (ACS Medicinal Chemistry Letters, 2022)
Where “and” joins values, the source holds several entries; their conditions need not be identical. Equal entries are not always repeated.

What was measured:
[1] = tested on: Bloodstream form trypomastigotes of T. b. brucei strain 427 (WT); assay: Resazurin-based susceptibility assay, wild-type T. b. brucei; type: cell-based; details: for EC50: BSF trypomastigotes strain 427, n = 3; for trypanocidal activity against T. brucei (in words): compounds with short linkers (C-3)
Description: . […] This finding was in agreement with previous reports on TAO inhibitors showing that a decrease in efficacy against T. b. brucei growth inhibition was observed as chain length decreased.[8],[9],[23]
(§1) BSF trypanosomes of monomorphic strains Lister 427 (WT), multi-drug-resistant clone B48, and the AQP1-3 KO, which lacks all aquaglyceroporins,[26] were grown in complete HMI-9 with 10% fetal bovine serum, exactly as described, and tested using a standard resazurin-based assay with 23 doubling dilutions for each compound starting at 100 μM.[27] Human embryonic kidney (HEK) cells were cultured and assayed with a resazurin-based assay exactly as described previously.[9] EC50 values were calculated by nonlinear regression with an equation for a sigmoid curve with variable slope (Prism 8.0, GraphPad).

[2] = tested on: human embryonic kidney (HEK) cells; details: HEK CC50 / T. b. brucei WT EC50
in vitro = details: human
[3] = target: Purified recombinant trypanosome alternative oxidase (ΔMTS-TAO) (Trypanosoma brucei brucei, UniProt Q26710); assay: Inhibition of ubiquinol oxidase activity of purified ΔMTS-TAO; details: for IC50: rTAO IC50, purified ΔMTS-TAO, n = 3; for inhibition at 40 µM: read-out: rTAO % inhibition at 40 μM; for inhibition at 10 µM: read-out: rTAO % inhibition (compound tested at 10 μM)
Sequence of Purified recombinant trypanosome alternative oxidase (ΔMTS-TAO) (Q26710 26-329, stated change not applied): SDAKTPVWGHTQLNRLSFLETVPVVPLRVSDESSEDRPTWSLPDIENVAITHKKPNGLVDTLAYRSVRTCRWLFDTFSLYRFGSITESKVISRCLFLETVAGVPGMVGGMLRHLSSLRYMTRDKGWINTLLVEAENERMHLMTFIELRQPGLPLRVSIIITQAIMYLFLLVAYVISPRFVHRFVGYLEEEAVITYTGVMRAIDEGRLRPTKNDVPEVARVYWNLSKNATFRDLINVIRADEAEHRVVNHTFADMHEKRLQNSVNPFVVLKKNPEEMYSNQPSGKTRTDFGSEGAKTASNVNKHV

[4] = tested on: T. b. brucei strain resistant to pentamidine (B48); assay: microbe, parasite or virus in culture; type: cell-based; details: for EC50: Trypanosoma brucei, read-out: T. b. brucei EC50 B48
[5] = tested on: T. brucei cell line from which all aquaporins were knocked out (AQP1-3 KO); assay: microbe, parasite or virus in culture; type: cell-based, T. b. brucei; details: for EC50: Trypanosoma brucei, read-out: T. b. brucei EC50 AQP1-3 KO; for RF (resistance factor relative to WT), AQP1-3 KO: EC50 AQP1-3 KO / EC50 WT
Description: as §1

In the case of `Cc1cc(O)cc(O)c1C(=O)NCCCCCCCCCCCCOc1ccc(C#N)cc1` [7c], the EC50 ([1]; Trypanosoma brucei) is reported as 15.6 ± 0.7 µM, the “SI (selectivity index) = CC50/EC50 (WT)” value [2] is reported as 3.7 and the CC50 (in vitro) is reported as 57.1 ± 0.1 µM. The melting point was 81.9 °C, the IC50 [3] was > 40 µM and the inhibition at 40 µM [3] was 27.4%. The EC50 [4] was 15.9 ± 0.7 µM.
In the case of `Cc1cc(O)cc(OC(=O)CCCCCCCCCCCCCCCOc2ccc(C#N)cc2)c1` [compound 21], the EC50 ([1]; Trypanosoma brucei) is reported as > 100 µM, the EC50 [5] is reported as > 100 µM and the CC50 (in vitro) is reported as > 100 µM. For the same molecule, the IC50 [3] was > 10 µM and the inhibition at 10 µM [3] was 30%.
With `Cc1cc(O)cc(O)c1C(=O)NCCCCCCCCCCCCCCOc1ccc(C(=N)NO)cc1` [8d] the EC50 ([1]; Trypanosoma brucei) was 29 ± 2.2 µM, the CC50 (in vitro) was > 200 µM and the IC50 [3] was > 40 µM. For the same molecule, the inhibition at 40 µM [3] was -3.4% and the EC50 [4] was 27.1 ± 2.4 µM.
For `Cc1cc(O)cc(O)c1C(=O)NCCCCCCOc1ccc(C#N)cc1` [7b], the EC50 ([1]; Trypanosoma brucei) was 30.4 ± 0.4 µM, the EC50 [5] was 30.5 ± 0.7 µM and the CC50 (in vitro) was > 200 µM. The IC50 [3] was 1.52 µM and 1.5 µM, the inhibition at 40 µM [3] was 96.2% and the EC50 [4] was 27.7 ± 2 µM.
With `CC(=O)O.Cc1cc(O)cc(O)c1C(=O)NCCCOc1ccc(C(=N)N)cc1` [1a] the EC50 ([1]; Trypanosoma brucei) was > 100 µM, the “trypanocidal activity against T. brucei (in words)” value (shortened to “trypanocidal activity”) [1] was “inactive” and the CC50 (in vitro) was > 200 µM. For the same molecule, the EC50 [4] was > 100 µM.
In the case of `CC(=O)O.Cc1cc(O)cc(O)c1C(=O)NCCCCCCCCCCCCOc1ccc(C2=NCCN2)cc1` [2c], the EC50 [5] is reported as 2.9 ± 0.4 µM, the “SI (selectivity index) = CC50/EC50 (WT)” value [2] is reported as 39.1 and the CC50 (in vitro) is reported as 67.2 ± 0.8 µM. The IC50 [3] was > 10 µM and the inhibition at 10 µM [3] was 10%.
For `Cc1cc(O)cc(O)c1C(=O)NCCCCCCCCCCCCOc1ccc(N=C2N(C(=O)OC(C)(C)C)CCN2C(=O)OC(C)(C)C)cc1` [14c], the EC50 ([1]; Trypanosoma brucei) was 10.4 ± 0.7 µM, the “RF (resistance factor relative to WT), AQP1-3 KO” value [5] was 1.5 and the EC50 [5] was 15.7 ± 0.3 µM. The “SI (selectivity index) = CC50/EC50 (WT)” value [2] was >9.6 and the CC50 (in vitro) was > 100 µM.
`C/C(=C\Cc1c(O)c(Cl)c(C)c(C=O)c1O)CC/C=C(\C)[C@@H]1CC(=O)C(C)(C)O1` [ascofuranone, reference compound] gave an inhibition at 40 µM [3] of 100%.
For `Cc1cc(O)cc(O)c1C(=O)NCCCCCCCCCCCCOc1ccc([N+](=O)[O-])cc1` [11c], the EC50 ([1]; Trypanosoma brucei) was 9.5 ± 0.5 µM, the EC50 [5] was 10.2 ± 0.7 µM and the “SI (selectivity index) = CC50/EC50 (WT)” value [2] was >10.5. For the same molecule, the CC50 (in vitro) was > 100 µM, the melting point was 102.3 to 106.3 °C and the IC50 [3] was 30 ± 1.5 µM. For the same molecule, the inhibition at 10 µM [3] was 53.8%.
With `N=C(N)c1ccc(/N=N/Nc2ccc(C(=N)N)cc2)cc1` [diminazene, reference compound] the EC50 ([1]; Trypanosoma brucei) was 0.095 ± 0.011 µM, the “RF (resistance factor relative to WT), B48” value ([4]; EC50 B48 / EC50 WT) was 1.1 and the EC50 [4] was 0.107 ± 0.019 µM.
With `Cc1cc(O)cc(O)c1C(=O)NCCCOc1ccc(C#N)cc1` [7a] the EC50 ([1]; Trypanosoma brucei) was 37.2 ± 3.4 µM, the “trypanocidal activity” value [1] was “poorly active” and the “SI (selectivity index) = CC50/EC50 (WT)” value [2] was >5.3. For the same molecule, the CC50 (in vitro) was > 200 µM, the IC50 [3] was > 40 µM and the inhibition at 40 µM [3] was 28.8%. For the same molecule, the EC50 [4] was 50.8 ± 2.7 µM.
In the case of `Cc1cc(O)cc(O)c1C(=O)NCCCCCCCCCCCCCCOc1ccc(C#N)cc1` [7d], the EC50 ([1]; Trypanosoma brucei) is reported as 14.8 ± 0.5 µM, the “SI (selectivity index) = CC50/EC50 (WT)” value [2] is reported as 3.8 and the CC50 (in vitro) is reported as 56.8 ± 0.2 µM. For the same molecule, the IC50 [3] was 16.4 ± 0.7 µM, the inhibition at 40 µM [3] was 89.7% and the EC50 [4] was 15.7 ± 0.5 µM.
With `Cc1cc(O)cc(O)c1C(=O)NCCCCCCOc1ccc(C(=N)NO)cc1` [8b] the EC50 ([1]; Trypanosoma brucei) was 19.5 ± 1 µM, the EC50 [5] was 21 ± 1 µM and the “SI (selectivity index) = CC50/EC50 (WT)” value [2] was 3.9. For the same molecule, the CC50 (in vitro) was 76.8 ± 7.2 µM, the IC50 [3] was > 40 µM and the inhibition at 40 µM [3] was -14.9%. It also gave an EC50 [4] of 36 ± 1.8 µM.
With `N=C(N)c1ccc(OCCCCCOc2ccc(C(=N)N)cc2)cc1` [pentamidine, reference compound] the EC50 ([1]; Trypanosoma brucei) was 0.004 ± 0.001 µM, the EC50 [5] was 0.046 ± 0.003 µM and the EC50 [4] was 0.208 ± 0.021 µM.
For `CC(=O)O.Cc1cc(O)cc(O)c1C(=O)NCCCCCCCCCCCCOc1ccc(N=C2NCCN2)cc1` [3c], the EC50 [1] was 2.7 ± 0.4 µM, the EC50 ([1]; Trypanosoma brucei) was < 4 µM and the EC50 [5] was 3.92 ± 0.03 µM. For the same molecule, the “SI (selectivity index) = CC50/EC50 (WT)” value [2] was >36.5, the CC50 (in vitro) was > 100 µM and the melting point was 44.5 to 51.1 °C. For the same molecule, the IC50 [3] was 22.5 ± 0.3 µM and the inhibition at 10 µM [3] was 46.3%.
For `Cc1cc(O)c(C(=O)CCCCCCCCCCCCCCCOc2ccc(C#N)cc2)c(O)c1` [compound 20], the “fold lower EC50 versus 7d” value ([1]; T. brucei WT EC50 of 20 versus 7d) was 2.5 fold, the EC50 ([1]; Trypanosoma brucei) was 5.8 ± 0.7 µM and the EC50 [5] was 8.2 ± 0.9 µM. For the same molecule, the “SI (selectivity index) = CC50/EC50 (WT)” value [2] was >17.1, the CC50 (in vitro) was > 100 µM and the “TAO inhibition (in words)” value [3] was “lack of TAO inhibition”. The IC50 [3] was > 10 µM and the inhibition at 10 µM [3] was 13.4%.
With `CC(=O)O.Cc1cc(O)cc(O)c1C(=O)NCCCCCCOc1ccc(C(=N)N)cc1` [1b] the EC50 ([1]; Trypanosoma brucei) was 15.5 ± 0.6 µM, the EC50 [5] was 17.4 ± 0.9 µM and the “SI (selectivity index) = CC50/EC50 (WT)” value [2] was >12.9. The CC50 (in vitro) was > 200 µM, the IC50 [3] was > 40 µM and the inhibition at 40 µM [3] was 12.5%. It also gave an EC50 [4] of 28 ± 0.5 µM.
In the case of `Cc1cc(O)cc(O)c1C(=O)NCCCCCCCCCCCCOc1ccc(C(=N)NO)cc1` [8c], the EC50 ([1]; Trypanosoma brucei) is reported as 8.4 ± 1.1 µM, the “SI (selectivity index) = CC50/EC50 (WT)” value [2] is reported as 13 and the CC50 (in vitro) is reported as 109 ± 1.6 µM. The IC50 [3] was > 40 µM, the inhibition at 40 µM [3] was 44.8% and the EC50 [4] was 9.1 ± 0.5 µM.
With `Cc1cc(O)cc(O)c1C(=O)NCCCOc1ccc(C(=N)NO)cc1` [8a] the EC50 ([1]; Trypanosoma brucei) was > 100 µM, the “trypanocidal activity” value [1] was “inactive” and the CC50 (in vitro) was > 200 µM. For the same molecule, the IC50 [3] was > 40 µM, the inhibition at 40 µM [3] was 14.1% and the EC50 [4] was > 100 µM.
For `Cc1cc(O)cc(O)c1C(=O)NCCCCCCCCCCCCCCOc1ccc(C(=N)N)cc1` [1d], the EC50 ([1]; Trypanosoma brucei) was 18.6 ± 1.1 µM, the CC50 (in vitro) was > 200 µM and the IC50 [3] was > 40 µM. It also gave an inhibition at 40 µM [3] of 31.4% and an EC50 [4] of 28.9 ± 5.2 µM.
In the case of `Cc1cc(O)cc(O)c1C(=O)NCCCCCCCCCCCCOc1ccc(N)cc1` [12c], the EC50 ([1]; Trypanosoma brucei) is reported as 20.3 ± 1.3 µM, the “RF (resistance factor relative to WT), AQP1-3 KO” value [5] is reported as 1.5 and the EC50 [5] is reported as 29.6 ± 2.2 µM. The “SI (selectivity index) = CC50/EC50 (WT)” value [2] was >4.9 and the CC50 (in vitro) was > 100 µM.
In the case of `CC(=O)O.Cc1cc(O)cc(O)c1C(=O)NCCCCCCCCCCCCOc1ccc(C(=N)N)cc1` [1c], the EC50 [1] is reported as 3.3 ± 0.2 µM, the EC50 ([1]; Trypanosoma brucei) is reported as < 4 µM and the “SI (selectivity index) = CC50/EC50 (WT)” value [2] is reported as 13.2. The CC50 (in vitro) was 43.5 ± 5.4 µM, the IC50 [3] was > 40 µM and the inhibition at 40 µM [3] was 39.3%. For the same molecule, the EC50 [4] was 3.6 ± 0.1 µM.
